Source: EP0336446A1, “Gene and gene product for the production of beta-lactam-compounds” (BIOCHEMIE GESELLSCHAFT M.B.H., priority 1988, dated 1989)
Several values for one entry are separate records, joined by “and”; a condition that tells them apart may be missing. Identical values can stand only once.

Experiments:
PAT [1] = target: T1, PAT (Penicillium chrysogenum, UniProt P15802); test: Substrate specificity of purified PAT (fraction AL 278/2), specific enzyme activity by HPLC; type: biochemical, Penicillium chrysogenum P2/ATCC 48271
[2] = test system: Micrococcus luteus ATCC 9341/BC 85; test: Agar diffusion test of penicillin standards (inhibition zone diameter); type: cell-based
PAT [3] = target: T1, PAT; test: Microbiological test of 6-APA-PaCoA acyltransferase activity (acylation of 6-APA with PaCoA to Penicillin V), indicator strain Micrococcus luteus ATCC 9341/BC 85; type: biochemical, Penicillium chrysogenum P2/ATCC 48271; settings: for 6-APA-PaCoA Transacylierungsaktivität (mm HH Ø): Stabilisierung, 5% Sorbit / 1 mM PMSF / 1% BSA / 10% Glycerin / 5% Mannit / 100 µg 6-APA/ml
[4] = labelled substance = Acylakzeptor, Acyldonator PaCoA
[5] = labelled substance = Acylakzeptor, Acyldonator PeCoA
[6] = labelled substance = Acyldonator, Acylakzeptor H₂O, Produkt 6-APA

T1 sequence (P15802 103-357 limits assumed): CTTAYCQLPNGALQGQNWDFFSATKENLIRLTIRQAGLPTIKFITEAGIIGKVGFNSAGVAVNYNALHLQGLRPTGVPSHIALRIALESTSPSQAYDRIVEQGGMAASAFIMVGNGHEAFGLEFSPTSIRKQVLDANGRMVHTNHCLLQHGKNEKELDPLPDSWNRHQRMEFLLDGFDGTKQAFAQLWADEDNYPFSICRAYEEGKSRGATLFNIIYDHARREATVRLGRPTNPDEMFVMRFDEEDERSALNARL
T1 sequence (P15802 1-102 limits assumed): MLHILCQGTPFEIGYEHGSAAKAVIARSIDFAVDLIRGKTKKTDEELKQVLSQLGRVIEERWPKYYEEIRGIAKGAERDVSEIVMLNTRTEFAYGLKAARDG

Compound: CC1=C(C(=O)O)N2C(=O)[C@@H](N)[C@H]2SC1 [7-ADCA, 7-Amino-3-desacetoxycephalosporansäure]
- mittels HPLC bestimmte spezifische Enzymaktivität (mU/mg Protein) A1 278/2 (PAT [1]; [4]): 49 mU/mg Protein

Compound: CC1(C)S[C@@H]2[C@H](NC(=O)COc3ccccc3)C(=O)N2[C@H]1C(=O)O [Penicillin V]
- mittels HPLC bestimmte spezifische Enzymaktivität (mU/mg Protein) A1 278/2 (PAT [1]; [5]): 99 mU/mg Protein
- mittels HPLC bestimmte spezifische Enzymaktivität (mU/mg Protein) A1 278/2 (PAT [1]; [6]): 75 mU/mg Protein
- zone of inhibition at 0.25 µg/mL ([2]; Micrococcus luteus, ATCC9341, 15 h, Penicillin V Std. 0.25 µg/ml, read-out: HH ⌀ mm): 9.7 mm
- zone of inhibition at 0.5 µg/mL ([2]; Micrococcus luteus, ATCC9341, 15 h, Penicillin V Std. 0.5 µg/ml, read-out: HH ⌀ mm): 17.6 mm
- zone of inhibition at 1 µg/mL ([2]; Micrococcus luteus, ATCC9341, 15 h, Penicillin V Std. 1.0 µg/ml, read-out: HH ⌀ mm): 21.7 mm
- zone of inhibition at 1.5 µg/mL ([2]; Micrococcus luteus, ATCC9341, 15 h, Penicillin V Std. 1.5 µg/ml, read-out: HH ⌀ mm): 24 mm
- zone of inhibition at 2 µg/mL ([2]; Micrococcus luteus, ATCC9341, 15 h, Penicillin V Std. 2.0 µg/ml, read-out: HH ⌀ mm): 25.3 mm
- HH ⌀ mm ([2]; Penicillin V Std. 0.25 µg/ml): 11.9 mm
- HH ⌀ mm ([2]; Penicillin V Std. 0.5 µg/ml): 17.8 mm and 18.4 mm
- HH ⌀ mm ([2]; Penicillin V Std. 1.0 µg/ml): 23.4 mm
- HH ⌀ mm ([2]; Penicillin V Std. 1.5 µg/ml): 24.7 mm
- HH ⌀ mm ([2]; Penicillin V Std. 2.0 µg/ml): 27.4 mm

Compound: CC1(C)S[C@@H]2[C@H](N)C(=O)N2[C@H]1C(=O)O [6-APA, 6-Aminopenicillansäure]
- Als Vergleich Transacylierung 6-APA + PaCoA → Penicillin V (PAT [3]): 17.0 mm and 23.2 mm and 26.9 mm and 25.9 mm
- mittels HPLC bestimmte spezifische Enzymaktivität (mU/mg Protein) A1 278/2 (PAT [1]; [4]): 393 mU/mg Protein
- mittels HPLC bestimmte spezifische Enzymaktivität (mU/mg Protein) A1 278/2 (PAT [1]; [5]): 329 mU/mg Protein

Compound: 7-Glutaryl-APA
- mittels HPLC bestimmte spezifische Enzymaktivität (mU/mg Protein) A1 278/2 (PAT [1]; [6]): 106 mU/mg Protein

Compound: Penicillin
- antibakterielle Sensitivität gegenüber Penicillin als gegenüber 6-APA ([2]; Micrococcus luteus ATCC 9341, relative to 6-APA): mehr als drei Zehnerpotenzen

Compound: CC1(C)S[C@@H]2[C@H](NC(=O)CCC[C@H](N)C(=O)O)C(=O)N2[C@H]1C(=O)O [Isopenicillin N]
- mittels HPLC bestimmte spezifische Enzymaktivität (mU/mg Protein) A1 278/2 (PAT [1]; [4]): 146 mU/mg Protein
- mittels HPLC bestimmte spezifische Enzymaktivität (mU/mg Protein) A1 278/2 (PAT [1]; [5]): 80 mU/mg Protein
- mittels HPLC bestimmte spezifische Enzymaktivität (mU/mg Protein) A1 278/2 (PAT [1]; [6]): 150 mU/mg Protein

Compound: OCC(O)CO [Glycerin]
- 6-APA-PaCoA Transacylierungsaktivität (mm HH Ø) (PAT [3]; 24 h bei +4°C, reaction 30', control ohne Zusatz Spur): 11.5 mm
- 6-APA-PaCoA Transacylierungsaktivität (mm HH Ø) (PAT [3]; 24 h bei +4°C, reaction sofort, control ohne Zusatz 0): 0 mm
- 6-APA-PaCoA Transacylierungsaktivität (mm HH Ø) (PAT [3]; 24 h bei -20°C, reaction 30', control ohne Zusatz 38): 38 mm
- 6-APA-PaCoA Transacylierungsaktivität (mm HH Ø) (PAT [3]; 24 h bei -20°C, reaction sofort, control ohne Zusatz 15.2): 15.2 mm
- 6-APA-PaCoA Transacylierungsaktivität (mm HH Ø) (PAT [3]; Testung sofort, reaction 30', control ohne Zusatz 33.4): 33.1 mm
- 6-APA-PaCoA Transacylierungsaktivität (mm HH Ø) (PAT [3]; Testung sofort, reaction sofort, control ohne Zusatz 21.5): 22.0 mm
